Assay [1] has as its system YB5 cells. In words: GFP reactivation in YB5 cells (flow cytometry). The class given is cell-based, human. Conditions: for GFP reactivation activity: multiple doses, four-day drug treatment in YB5. Background: Flow cytometry measures light scatter and fluorescence of single cells or particles in a stream.
Assay [2] concerns YB5 cells. In words: RNA-seq in YB5 cells. The class given is cell-based, human. Conditions: after excluding early response genes. Here is the method:
RNA from experiments in biological triplicates was isolated using RNeasy Mini Plus Kit (QIAGEN) following the manufacturer's instructions. Strand-specific RNA libraries were generated from 1 μg of RNA using TruSeq stranded total RNA with Ribo-Zero Gold (Illumina). Sequencing was performed using single end reads (50 bp, average 50 million reads per sample) on the HiSeq2500 platform (Illumina) at Fox Chase Cancer Center Genomic Facility. Sequenced reads were aligned to the hg19 genome assembly using TopHat2 (Kim, D., Pertea, G., Trapnell, C., Pimentel, H., Kelley, R., and Salzberg, S. L. (2013). Genome Biol 14, R36). The expression level and fold change of each treatment group was evaluated using EdgeR (Robinson, M. D., McCarthy, D. J., and Smyth, G. K. (2010), Bioinformatics 26, 139-140). Genes that had 0 reads across all samples were excluded. In order to get rid of batch effects, samples were normalized using RUVr method from the RUVseq package (Risso, D., Ngai, J., Speed, T. P., and Dudoit, S. (2014). Normalization of RNA-seq data using factor analysis of control genes or samples. Nat Biotechnol 32, 896-902). RNA data were deposited in the GEO database with the accession number GSE104837.

Assay [3] has as its system YB5 cells. As to the kind of experiment: GFP reactivation in YB5 cells (flow cytometry). The class given is cell-based, human. Conditions: for Emax at 1 µM / Emax at 5 µM / Emax at 10 µM / Emax at 25 µM: Homo sapiens, 24 h; for Emax at 1 µM: read-out: relative activity to Depsipeptide @ 1 μM %; for Emax at 5 µM: read-out: relative activity to Depsipeptide @ 5 μM %; for Emax at 10 µM: read-out: relative activity to Depsipeptide @ 10 μM %; for Emax at 25 µM: read-out: relative activity to Depsipeptide @ 25 μM %. An excerpt:
To screen the compounds of the invention for epigenetic anti-cancer activity the YB5 cell-based system, which is derived from the human colon cancer cell line SW48, was used (Si et al., 2010, Cancer Res. 70:6968-6977; Raynal et al., 2012, Cancer Res. 72:1170-1181). YB5 cells contain a single insertion of cytomegalovirus (CMV) promoter driving green fluorescent protein (GFP) gene. GFP expression is silenced in >99.9% of YB5 cells by epigenetic mechanisms. In YB5 cells, the inserted GFP gene behaves similarly to endogenous tumor suppressor genes (TSGs) silenced by epigenetic mechanisms, and it can be reactivated by epigenetic anti-cancer agents such as DNA methylation inhibitors and/or HDAC inhibitors such as depsipeptide (Si et al., 2010, Cancer Res. 70:6968-6977; Raynal et al., 2012, Cancer Research, 72:1170-1181; Wu et al., 2008, Mol. Cell Biol, 28:3219-3235). Thus, reactivation of GFP expression and the resulting fluorescence is a measure of epigenetic anti-cancer activity.
The following procedure may be used to identify compounds of useful in the invention. YB5 cells cultured in L-15 medium supplemented with 10% fetal bovine serum and 1% P/S are treated for 24 hours with varying concentrations (50 nM, 100 nM, 500 nM, 1 μM, 5 μM, 10 μM, 25 μM, and 50 μM) of test compounds. After treatment, cells are trypsinized and re-suspended in cell culture media with propidium iodide (PI) to stain dead cells. Reactivation of GFP is measured using flow cytometry to identify the GFP positive population. The relative activities are expressed as the percent of the response compared to treatment with 20 nM HDACi depsipeptide for 24 hours. YB5 cells are grown in 1% CO2 atmosphere at 37° C.
NDL-3040 compound library consists of 3040 chemically diverse compounds that are semi-natural, derived from natural compounds, or synthetic compounds that are natural-compound-like. The small molecules were arrayed in 96-well plates as 10 mM stocks in 100% DMSO and were purchased from TimTec Inc. An aminothiazole analog library (93 small molecules) was also purchased from the same vendor and was in a 96-well plate format as 10 mM stocks in 100% DMSO. The 3040 compounds were screened at 25 μM for 24 hr. All plates were kept at −80° C. before use. YB5 cells growing in log phase (70-80% confluency) in 96-well plates were used. Each experimental 96-well plate contained 80 different compounds. Compounds were dispensed using an INTEGRA VIAFLO96 96-well pipette. After a 24 hr drug treatment, cells were trypsinized for 10 mins and re-suspended in L-15 medium containing propidium iodide (PI) to stain for dead cells. A total of 10000 cells per well were analyzed using Millipore Guava flow cytometer (EMD, Millipore). GFP positive percentage was calculated by excluding all the PI positive cells. After finishing the screening, the average Z-factor
For drug screening and dose response validations, GFP positive cells were detected by Millipore Guava flow cytometer (EMD, Millipore). Cell cycle analysis was performed using BD FACSCalibur™ by propidium iodide staining four days after drug treatment. Sub-G1 population percentage was also included to measure apoptotic cell proportion. Data were analyzed using FlowJo software version 10.2. For the cell differentiation analysis, cells were washed and stained with propidium iodide (PI), CD11 b (BD Biosciences, #562793) and the isotype control IgG (BD Biosciences, #555748). Flow cytometry analysis was performed on a Millipore Guava flow cytometer (EMD, Millipore). For the ID8 in vivo experiments, ascites was drained from 5-10 mice per group and incubated in ACK buffer (Thermo Fisher) to lyse red blood cells for 10 minutes, then washed. Ascites from each mouse was individually lysed and prepared for flow cytometry. Mononuclear cells collected were cultured for 4 hours in RPMI with 5% Fetal Bovine Serum and in the presence of Cell Stimulation Cocktail (plus protein transport inhibitors; eBioscience). […]

A further assay relates to ID8. As to the kind of experiment: ID8 ovarian cancer syngeneic immunocompetent mouse model. It is filed as in vivo. The procedure:
For drug screening and dose response validations, GFP positive cells were detected by Millipore Guava flow cytometer (EMD, Millipore). Cell cycle analysis was performed using BD FACSCalibur™ by propidium iodide staining four days after drug treatment. Sub-G1 population percentage was also included to measure apoptotic cell proportion. Data were analyzed using FlowJo software version 10.2. For the cell differentiation analysis, cells were washed and stained with propidium iodide (PI), CD11 b (BD Biosciences, #562793) and the isotype control IgG (BD Biosciences, #555748). Flow cytometry analysis was performed on a Millipore Guava flow cytometer (EMD, Millipore). For the ID8 in vivo experiments, ascites was drained from 5-10 mice per group and incubated in ACK buffer (Thermo Fisher) to lyse red blood cells for 10 minutes, then washed. Ascites from each mouse was individually lysed and prepared for flow cytometry. Mononuclear cells collected were cultured for 4 hours in RPMI with 5% Fetal Bovine Serum and in the presence of Cell Stimulation Cocktail (plus protein transport inhibitors; eBioscience). Cells were then washed and stained for cell surface markers including Live/Dead (eBioscience #65-0865-18), CD45 (BD Biosciences, #563891), CD3 (BD Biosciences, #560527), MHC II (Biolegend #107619, Isotype Control #400627), CD80 (BD Biosciences, #553769), CD86 (BD Biosciences, #558703) and CD11c (BD Biosciences, #564079). Flow cytometry acquisition was performed on an LSRII cytometer (BD Biosciences) and data were analyzed using FlowJo software version 10.2.
2.5×10^5 ID8-VEGF-Defensin cells were injected i.p. into 7-8-week-old female C57BL/6NHsd (C57Bl/6) mice. Three days after injection, 1 mg/kg SNS-032, 10 mg/kg SNS-032, or 5% DMSO in PBS (vehicle control) was administered i.p. every 3 days for the duration of the experiment. α-PD-1 (200 ug/mouse) or IgG control were given on days 17, 20, 24, and 27 after injection. α-PD-1 (1 mg/mL in saline) was utilized. Mouse IgG isotype control was purchased from Leinco Technologies and diluted in PBS.

In assay [4] the test system is YB5 cells. In words: qPCR gene expression in YB5 cells. The class given is cell-based, human. The following applies: 24 hr treatment. Here is the method:
Total RNA was extracted using TRIzol reagent (Invitrogen) following the manufacturer's protocol and RNA concentrations were measured using Nanodrop. cDNAs were synthesized using High Capacity cDNA Reverse Transcription Kit (ThermoFisher) and qPCR was performed using either ready-made TaqMan® assays or SYBR-green using custom-designed primers. All the data were analyzed using Applied Biosystems software (StepOne™ Software V2.3). For all experiments, relative expression levels of the target genes were determined by calculating the 2^−ΔΔCt values. All experiments were performed at least in triplicates. Either GAPDH or 18S rRNA was used as an internal normalization control for protein coding genes. RPLPO was used as an internal normalization control for ERVs. All SYBR-green primers were described previously and are listed in Table 1 along with TaqMan® probes used.

On to `Cc1c[nH]c(-c2cnc(NCCNc3ccc(C#N)cn3)nc2-c2ccc(Cl)cc2Cl)n1` [CHR99021], for which, in the assay on YB5 cells [1], the GFP reactivation activity entry is given as “no GFP reactivation activity”.

As to `Nc1ncn([C@H]2C[C@H](O)[C@@H](CO)O2)c(=O)n1` [DAC, decitabine], in the assay with YB5 cells [2], the “low expressed genes (RPKM<0.31) down” value amounted to 7 and the “low expressed genes (RPKM<0.31) up” value amounted to 1238.

Regarding `[Cl-].[Li+]` [LiCl], the GFP reactivation activity entry in the assay with YB5 cells [1] is listed as “no GFP reactivation activity”.

For the molecule `COc1cc(C(=O)c2sc(N[C@H]3CC4CCC3C4)nc2N)cc(OC)c1OC` (stereo partly drawn) [MC180251, (4-amino-2-(((2S)-bicyclo[2.2.1]heptan-2-yl)amino)thiazol-5-yl)(3,4,5-trimethoxyphenyl)methanone], in the assay with YB5 cells [3], the “relative activity to Depsipeptide @ 50 μM %” value came out at 0.00%, the Emax at 1 µM came to 0%, the Emax at 5 µM was 0% and the Emax at 10 µM was 0%. Also, the Emax at 25 µM in the assay with YB5 cells [3] was determined as 0%.

With `Nc1nc(N[C@H]2C[C@@H]3CC[C@H]2C3)sc1C(=O)c1cc2c(cc1[N+](=O)[O-])OCO2` [MC180300], in the assay on YB5 cells [3], the “relative activity to Depsipeptide @ 500 nM %” value stood at 0.68%, the Emax at 1 µM is 3.87%, the Emax at 5 µM stood at 35.6% and the Emax at 10 µM is 51.6%. The Emax at 25 µM in the assay on YB5 cells [3] amounted to 46.9%.

With `Nc1nc(N[C@H]2CC3CCC2C3)sc1C(=O)c1cc2c(cc1[N+](=O)[O-])OCCO2` (stereo partly shown) [MC180312], in the assay on YB5 cells [3], the “relative activity to Depsipeptide @ 50 μM %” value is on record as 6.38%, the Emax at 1 µM turned out to be 9.73%, the Emax at 5 µM was found to be 35.6% and the Emax at 10 µM is 42.3%. The Emax at 25 µM in the assay on YB5 cells [3] was found to be 9%.

Regarding `Nc1nc(N[C@H]2CC3CCC2C3)sc1C(=O)c1cccc([N+](=O)[O-])c1` (stereo partly shown) [MC180339], in the assay with YB5 cells [3], the “relative activity to Depsipeptide @ 500 nM %” value amounted to 3.29%, the Emax at 1 µM worked out at 3.05%, the Emax at 5 µM came out at 16.9% and the Emax at 10 µM was 29.2%. Moreover, the Emax at 25 µM in the assay with YB5 cells [3] came out at 8.71%.

In the case of `Nc1nc(N[C@H]2CC3CCC2C3)sc1C(=O)c1ccc([N+](=O)[O-])cc1` (stereo partly shown) [MC180340], in the assay with YB5 cells [3], the “relative activity to Depsipeptide @ 500 nM %” value was 3.54%, the Emax at 1 µM is 2.83%, the Emax at 5 µM was 13% and the Emax at 10 µM worked out at 11.6%. Besides, in the assay with YB5 cells [3], the Emax at 25 µM came to 3.41%.

With `N#Cc1ccccc1C(=O)c1sc(N[C@H]2CC3CCC2C3)nc1N` (stereo partly drawn) [MC180342, 2-(4-amino-2-(((2S)-bicyclo[2.2.1]heptan-2-yl)amino)thiazole-5-carbonyl)benzonitrile], in the assay with YB5 cells [3], the “relative activity to Depsipeptide @ 500 nM %” value turned out to be 10.42%, the Emax at 1 µM is 22.7%, the Emax at 5 µM turned out to be 107% and the Emax at 25 µM worked out at 78.8%.

As for `Nc1nc(N[C@H]2CC3CCC2C3)sc1C(=O)c1ccc2nonc2c1` (stereo partly shown) [MC180345], in the assay on YB5 cells [3], the “relative activity to Depsipeptide @ 500 nM %” value is on record as 1.87%, the Emax at 1 µM was 3.58%, the Emax at 5 µM was found to be 3.61% and the Emax at 10 µM was determined as 3.99%. In the assay on YB5 cells [3], the Emax at 25 µM came out at 12.6%.

Take `Nc1nc(N[C@H]2CC3CCC2C3)sc1C(=O)c1cccc2nonc12` (stereo partly drawn) [MC180349, (4-amino-2-(((2S)-bicyclo[2.2.1]heptan-2-yl)amino)thiazol-5-yl)(benzo[c][1,2,5]oxadiazol-4-yl)methanone]: in the assay on YB5 cells [3], the “relative activity to Depsipeptide @ 500 nM %” value amounted to 10.98%, the Emax at 1 µM came out at 27.5%, the Emax at 5 µM worked out at 91.2% and the Emax at 10 µM was found to be 74.5%. In addition, the Emax at 25 µM in the assay on YB5 cells [3] worked out at 36.6%.

Regarding `O=C(/C=C/N1C[C@H]2C[C@@H]1CN2c1ccccn1)c1ccccc1O` [PFI-3], the “effect on GFP activation by HH1 or iCDK9” value with YB5 cells [1] (72 hr daily pre-treatment followed by 24 hr co-treatment) is “inhibited GFP activation”.

`CC(C)(C)c1cnc(CSc2cnc(NC(=O)C3CCNCC3)s2)o1` [SNS-032]: in the assay on ID8 (10 mg/kg), the survival entry is recorded as “extend the survival of the mice significantly” and the tumor burden result is on record as “reduce tumor burden”. Also, the “immune cells (CD45+) and T cells (CD3+) in the tumor microenvironment” value in the assay on ID8 (in vivo treatment, ascites fluid, flow cytometry) is listed as “increased populations”.

For `CN1CC[C@H](c2c(O)cc(O)c3c(=O)cc(-c4ccccc4Cl)oc23)[C@H](O)C1` [flavopiridol], the “expression of SYNE1 and MGMT” value in the assay on YB5 cells [4] was “gene reactivation”.

For `NC1CCC(Nc2cc(-c3cccc(NCc4cccc(F)c4)n3)c(Cl)cn2)CC1` (stereo not shown) [iCDK9], the “expression of SYNE1 and MGMT” value with YB5 cells [4] is reported as “gene reactivation”.

These data come from patent US10941126B2, “Bridged bicycloalkyl-substituted aminothiazoles and their methods of use” (Temple University—Of The Commonwealth System of Higher …, priority 2017, dated 2021).
